Patent US11596696B2, “Combination therapy with an anti-CD25 antibody-drug conjugate” (ADC Therapeutics SA, priority 2017, dated 2023)

Key:
[1] = tested on: surface CD25 on Karpas299 cell line; assay: Surface CD25 by flow cytometry (FACS) after Cytarabine (Example 5); type: cell-based; conditions: Karpas299 cell line (high in CD25) incubated with Cytarabine
Description: (§1) After incubation, two parameters were measured: the amount of surface CD25 (as determined by flow cytometry) and the in vitro cytotoxicity of the combinations (as determined by CellTiter-Glo® or MTS assays). Cytotoxic synergy was calculated by transforming the cell viability data into fraction affected, and calculating the combination index (Table 1) using the CalcuSyn analysis program.

[2] = tested on: surface CD25 on KG-1 cells; assay: as above; type: cell-based; conditions: CD25(+) KG-1 cells (low CD25) incubated with Cytarabine
Description: as §1

[3] = tested on: IL2Ralpha (CD25) mRNA in Karpas-299 cells; assay: CD25 mRNA expression by TaqMan qRT-PCR (Example 9); type: cell-based; conditions: Karpas299 cells; 30 nM Cytarabine; over the 72 hour period
Description: (§2) Karpas-299, EOL-1 or KG-1 cells were incubated with 30 nM Cytarabine for 24 hours before mRNA was isolated and reverse-transcribed. cDNA was probed for IL2Ralpha (CD25) by TagMan qRT-PCR. Mean fold change in expression compared to the untreated control was calculated using the ddCT method using the reference gene abl-1. A time-course to measure expression change over 3-4 days was also done in Karpas-299 (high CD25 expressing) and KG-1 cells (low CD25 expressing) under the same conditions, only extending incubation time with Cytarabine.

[4] = tested on: IL2Ralpha (CD25) mRNA in KG-1 cells; assay: CD25 mRNA expression by TaqMan qRT-PCR (Example 9); type: cell-based; conditions: 30 nM Cytarabine
Description: as §2

[5] = tested on: CD25 surface protein on Karpas-299 cells; assay: CD25 surface protein, antibodies bound per cell, QuantiBRITE-PE flow cytometry (Example 9); type: cell-based, human
Source text: (§3) Cells were then washed and run on a Fortessa X20 flow cytometer.

[6] = tested on: CD25 surface protein on KG-1 cells; assay: as above; type: cell-based, human
Source text: as §3

[7] = tested on: surface CD25 on Karpas299 cell line; assay: Surface CD25 by flow cytometry after decitabine (Example 6); type: cell-based; parameters: dose or concentration left out as unconfirmed; conditions: in the presence of decitabine
Description: After incubation, two parameters were measured: the amount of surface CD25 (as determined by flow cytometry) and the in vitro cytotoxicity of the combinations (as determined by MTS assays).

[8] = tested on: advanced melanoma; conditions: phase III; compared to the standard of care (temozolomide or dacarbazine); cited from earlier work

Compound: Nc1ccn([C@@H]2O[C@H](CO)C(O)[C@@H]2O)c(=O)n1 (stereo in doubt) [Cytarabine, 4-amino-1-[(2R,3S,4R,5R)-3,4-dihydroxy-5-(hydroxymethyl)oxolan-2-yl] pyrimidin-2-one]
- Change in surface CD25 [1]: No increase
- Change in surface CD25 levels (FACS analysis) [2]: two-fold increase
- Effect on CD25 mRNA expression [3]: little effect
- Increase in CD25 mRNA expression vs untreated control ([4]; after 24 hours incubation): 2 fold
- Increase in CD25 mRNA expression vs untreated control ([4]; after 48 hours incubation): 4 fold
- Increase in CD25 mRNA expression vs untreated control ([4]; after 96 hours incubation): 3 fold
- Mean number of CD25 antibodies bound per cell ([5]; Karpas299 cells treated with 30 nM Cytarabine 24 hours (untreated the same)): ~60000 antibodies per cell
- Effect on CD25 surface protein expression ([5]; Karpas299 cells, 30 nM Cytarabine, 24 hour period): little effect
- Mean number of CD25 antibodies bound per cell ([6]; KG-1 cells treated with 30 nM Cytarabine 24 hours (untreated ~200)): ~400 antibodies per cell
- Levels of CD25 surface expression ([6]; KG-1 cells, 30 nM Cytarabine, 24 hours): significantly increased

Compound: Nc1ncn([C@H]2C[C@H](O)[C@@H](CO)O2)c(=O)n1 [Decitabine, 4-Amino-1-(2-deoxy-β-D-erythro-pentofuranosyl)-1,3,5-triazin-2(1H)-one]
- Amount of CD25 on the cells [7]: no difference

Compound: tremelimumab: anti-CTLA4 antibody
- Overall survival of patients [8]: did not significantly increase the overall survival
